# In patent US20070075630A1, “Organic compositions” (priority 2005, published 2007):
# Assay: solubility of organic semiconductor in solvent (Table 1, formulation and processing)
# Type: physicochemical
# Conditions: solvent THF
row,Compound,solubility in THF
1,"CC(CO)COc1ccc(-c2ccc(-c3ccc(-c4ccc(OCC(C)CO)cc4)s3)s2)cc1 (stereo not drawn) [3(3OH,2Me)-O-PTTP- O-3(3OH,2Me), 3-(4-{5′-[4-(3-Hydroxy-2-methyl-propoxy)-phenyl]-[2,2′]bithiophenyl-5-yl}-phenoxy)-2-methyl-propan-1-ol]",Low solubility in THF (600 ppm)
2,"CC(COc1ccc(-c2ccc(-c3ccc(-c4ccc(OCC(C)COC5CCCCO5)cc4)s3)s2)cc1)COC1CCCCO1 (stereo not drawn) [3(3THPO,2Me)-O-PTTP- O-3(THPO,2Me), 5,5′-Bis-[4-(2-methyl-propoxy-tetrahydro-pyran)-phenoxy]-[2,2′]bithiophenyl]","Well soluble in THF (about 75,000 ppm)"
3,"CCC(CC)COc1ccc(-c2ccc(-c3ccc(-c4ccc(OCC(CC)CC)cc4)s3)s2)cc1 [4(2Et)-O-PTTP-O- 4(2Et), 5,5′-bis(4-(2-ethylbutyloxy)phenyl)-2,2′-bithiophene]","solubility in THF about 4,900 ppm"
4,"CC(C)CCCOc1ccc(-c2ccc(-c3ccc(-c4ccc(OCCCC(C)C)cc4)s3)s2)cc1 [5(4Me)-O-PTTP-O-5(4Me), 5,5′-bis(4-(4-methylpentyloxy)phenyl)-2,2′-bithiophene]","solubility in THF about 5400 ppm. DSC: mp =250° C., smaller"
5,"CCCCCC(CC)Oc1ccc(-c2ccc(-c3ccc(-c4ccc(OC(CC)CCCCC)cc4)s3)s2)cc1 (stereo not drawn) [6(1Et)-O-PTTP-O- 6(1Et), 5,5═-Bis-[4-(1-ethyl-hexyloxy)-phenyl]-[2,2′]bithiophenyl]","Well soluble in THF (about 330,000 ppm) DSC: mp = 97-102° C., (broad transition)"
6,"CCCCCC(C)Oc1ccc(-c2ccc(-c3ccc(-c4ccc(OC(C)CCCCC)cc4)s3)s2)cc1 (stereo not drawn) [6(1Me)-O-PTTP-O- 6(1Me), 5,5′bis(4-(1-methylhexyloxy)phenyl)-2,2′-bithiophene]","~89,000 ppm"
7,"CCCCC(C)COc1ccc(-c2ccc(-c3ccc(-c4ccc(OCC(C)CCCC)cc4)s3)s2)cc1 (stereo not drawn) [6(2Me)-O-PTTP-O- 6(2Me), 5,5′-bis(4-(2-methylhexyloxy)phenyl)-2,2′-bithiophene]","sufficiently soluble in THF (about 61,000 ppm) DSC: mp = 197 °C"
8,"CC(C)(C)[Si](OCCCCCCOc1ccc(-c2ccc(-c3ccc(-c4ccc(OCCCCCCO[Si](c5ccccc5)(c5ccccc5)C(C)(C)C)cc4)s3)s2)cc1)(c1ccccc1)c1ccccc1 [6(6TBDPSO)-O- PTTP-O- 6(6TBDPSO), 5,5′-Bis-{4-[6-(tert-butyl-diphenyl-silanyloxy)-hexyloxy]-phenyl}-[2,2′]bithiophenyl]","# THF (about 310,000 ppm)"
9,"CCCCCCOc1ccc(-c2ccc(-c3ccc(-c4ccc(OCCCCCC)cc4)s3)s2)cc1 [6-O-PTTP-O-6, 5,5′-bis(4-hexyloxyphenyl)-2,2′-bithiophene]","solubility in THF about 600 ppm, lowest value by far. Differential scanning calorimetry"
10,"C=CC(C=C)OC(=O)CCCCCOc1ccc(-c2ccc(-c3ccc(-c4ccc(OCCCCCC(=O)OC(C=C)C=C)cc4)s3)s2)cc1 [6-[4-(5′-[5-(1-Vinyl-allyloxycarbonyl)-pentyloxy]-phenyl}-[2,2′]bithiophenyl-5-yl)-phenoxy]-hexanoic acid 1-vinyl-allyl ester]","well soluble in THF (131,000 ppm)"
11,"CC(C)CCCC(C)CCOc1ccc(-c2ccc(-c3ccc(-c4ccc(OCCC(C)CCCC(C)C)cc4)s3)s2)cc1 (stereo not drawn) [8(3,7Me)-O-PTTP-O- 8(3,7Me), 5,5′-bis(4-(3,7-dimethyloctyloxy)phenyl)-2,2′-bithiophene]","solubility in THF about 12,000 ppm DCS: mp = 192° C.,"

# Same assay, conditions: solvent not stated
row,"solubility (in words, compared with 6PTTP6)",Compound
1,Solubility like 6PTTP6,"CCCOCCc1ccc(-c2ccc(-c3ccc(-c4ccc(CCOCCC)cc4)s3)s2)cc1 [3O2PTTP2O3, 5,5═-Bis(4-(propxyethyl)phenyl)-2,2′-bithiophene]"
